Source: ChEMBL document CHEMBL1201862, “PubChem BioAssay data set” (2004)
Activity calls are given as the source filed them.

Legend:
[1] = Shn3 3'UTR reporter inhibitors, dose response, cell-based, Clone20 osteoblasts, firefly luciferase, cherry-picked (AID 624132); format: functional;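 note: firefly luciferase luminescence from reporter carrying the Shn3 3'UTR in osteoblasts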
[2] = test system: Streptococcus; experiment: Group A Streptococcus viability loss, dose response, counter-screen for streptokinase expression inhibitor project, luminescence, BacTiterGlo (AID 1915); format: functional, organism-based;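 note: potency for reduction of bacterial viability or growth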
[3] = biological target: T1, Streptokinase A (Streptococcus pyogenes serotype M1, UniProt P10520); experiment: S. pyogenes streptokinase expression inhibitors, potency, dose response, plasminogen activation absorbance, OD405 (AID 1914); format: functional, Streptococcus pyogenes M1 GAS;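 note: secreted streptokinase activity via plasminogen activation per viability signal from cell pellet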
T1 sequence (P10520 whole entry): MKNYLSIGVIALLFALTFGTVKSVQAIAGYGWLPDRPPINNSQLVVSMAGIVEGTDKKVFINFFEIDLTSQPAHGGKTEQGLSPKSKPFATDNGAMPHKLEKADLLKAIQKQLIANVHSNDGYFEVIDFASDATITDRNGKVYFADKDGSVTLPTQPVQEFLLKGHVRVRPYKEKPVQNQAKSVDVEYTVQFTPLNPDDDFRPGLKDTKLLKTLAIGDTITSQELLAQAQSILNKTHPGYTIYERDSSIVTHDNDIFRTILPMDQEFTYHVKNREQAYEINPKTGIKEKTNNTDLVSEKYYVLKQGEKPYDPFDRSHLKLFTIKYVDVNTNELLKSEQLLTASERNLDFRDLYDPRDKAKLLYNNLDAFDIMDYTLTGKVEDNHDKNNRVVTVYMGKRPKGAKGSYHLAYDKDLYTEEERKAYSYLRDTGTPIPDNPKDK

[4] = HepG2 cell cytotoxicity, dose response, cytotoxicity control for Shn3 inhibitor project, CellTiter-Glo, cherry-picked (AID 624134); format: functional, cell-based
[5] = reduction of Shn3 3'UTR firefly luciferase signal, dose response, Schnurri-3 inhibitor project, cell-based, Clone20 osteoblasts, cherry-pick, set 2 (AID 720490); format: functional;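 note: actives lower the luminescence signal as inhibitors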
[6] = test system: Streptococcus sp. 'group A'; experiment: growth inhibition of control SK(-) GAS strain, dose response, counter-screen for streptokinase expression inhibitor project, luminescence, kanamycin, BacTiterGlo, confirmation (AID 1900); format: functional, organism-based
[7] = Luminescence Cell-Based Dose Retest to Confirm Inhibitors of Cancer Stem Cells. [Related pubchem assays (depositor defined):AID2717, AID2721]; format: functional; conditions: Homo sapiens
[8] = biological target: T2, Oxysterols receptor LXR-beta (Homo sapiens, UniProt P55055); format: functional, cell-based;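 note: agonist activity at LXR measured by a cell-based luminescence readout across a dose range, run as a counterscreen for daf-12 agonists; HEK293 cells with Gal4-LXR fusion and GAL4-driven luciferase reporter; potency for activation of Gal4-LXR reporter so compounds are agonists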
T2 sequence (P55055 whole entry): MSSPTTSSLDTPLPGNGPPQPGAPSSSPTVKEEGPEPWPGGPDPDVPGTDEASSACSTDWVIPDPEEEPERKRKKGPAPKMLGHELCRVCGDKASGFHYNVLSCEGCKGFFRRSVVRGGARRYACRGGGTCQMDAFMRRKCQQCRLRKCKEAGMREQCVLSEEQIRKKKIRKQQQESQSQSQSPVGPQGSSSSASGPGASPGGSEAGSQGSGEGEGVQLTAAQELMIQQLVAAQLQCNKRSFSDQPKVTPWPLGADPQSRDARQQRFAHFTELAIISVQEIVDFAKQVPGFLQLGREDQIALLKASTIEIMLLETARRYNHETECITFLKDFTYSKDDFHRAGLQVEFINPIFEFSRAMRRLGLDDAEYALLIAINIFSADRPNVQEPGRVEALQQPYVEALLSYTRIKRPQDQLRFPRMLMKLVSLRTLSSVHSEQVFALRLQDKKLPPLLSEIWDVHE

[9] = biological target: Major prion protein (Homo sapiens, UniProt P04156); format: functional, cell-based
[10] = cells
[11] = biological target: Paired box protein Pax-8 (Homo sapiens, UniProt Q06710); experiment: inhibitors of PAX8-driven TPO luciferase reporter, dose response, RMG-I cells, cherry-pick (AID 687027); format: functional, cell-based;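 note: luciferase reporter driven by Pax8 target thyroperoxidase promoter measured by SteadyGlo luminescence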
Sequence of Paired box protein Pax-8 (Q06710 whole entry): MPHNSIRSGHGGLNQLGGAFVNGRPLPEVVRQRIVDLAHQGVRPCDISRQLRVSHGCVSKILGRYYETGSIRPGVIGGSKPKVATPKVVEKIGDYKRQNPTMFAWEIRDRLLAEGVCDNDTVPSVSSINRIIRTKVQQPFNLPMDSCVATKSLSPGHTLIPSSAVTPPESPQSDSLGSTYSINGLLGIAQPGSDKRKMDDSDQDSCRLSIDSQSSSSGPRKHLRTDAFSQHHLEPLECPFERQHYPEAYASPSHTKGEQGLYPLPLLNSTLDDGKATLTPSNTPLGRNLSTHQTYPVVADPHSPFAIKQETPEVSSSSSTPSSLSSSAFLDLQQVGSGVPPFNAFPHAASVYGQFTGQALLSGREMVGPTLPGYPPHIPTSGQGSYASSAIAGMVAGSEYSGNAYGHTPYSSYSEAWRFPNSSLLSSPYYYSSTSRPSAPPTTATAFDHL

[12] = PAX5 activity inhibitors, dose response, selectivity assay for PAX8 inhibitor project, cell-based, plate reader, dry powder samples (AID 743047); format: functional;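 note: HEK293 cells carrying a Pax5 driven CD19 promoter luciferase reporter; potency of inhibitors that lower reporter luminescence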
[13] = cytotoxicity in COV362 ovarian cancer cells, dose response, cytotoxicity control for PAX8 inhibitor project, cell-based, plate reader, dry powder, SA12 (AID 743144); format: functional
[14] = NIH:OVCAR-3 ovarian cancer cell cytotoxicity, dose response, PAX8 inhibitor project, plate reader, dry powder samples (AID 743044); format: functional, cell-based
[15] = PAX2 cell-based inhibition, dose response, selectivity assay for PAX8 inhibitor project, plate reader, dry powder samples (AID 743048); format: functional;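 note: HEK293 cells carrying a WT1 promoter luciferase reporter driven by expressed Pax2; potency is for inhibition of Pax2 driven reporter signal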
[16] = cytotoxicity in COV434 cells, dose response, cytotoxicity control for PAX8 inhibitor project, cell-based, plate reader, dry powder, SA7 (AID 743145); format: functional
[17] = cytotoxicity in OV-90 ovarian cancer cells, dose response, PAX8 inhibitor project, cell-based, plate reader, dry powder, SA8 (AID 743149); format: functional
[18] = cytotoxicity in OVCAR4 cells, dose response, cytotoxicity control for PAX8 inhibitor project, cell-based, plate reader, dry powder, SA11 (AID 743150); format: functional; conditions: OVCAR-4
[19] = IGROV1 ovarian cancer cell cytotoxicity, dose response, PAX8 inhibitor project, plate reader, dry powder samples (AID 743043); format: functional, cell-based; conditions: IGROV-1
[20] = cytotoxicity dependent on PAX8, dose response, cell-based, plate reader, dry powder (AID 743049); format: functional
[21] = biological target: Fructose-bisphosphate aldolase (Mycobacterium tuberculosis, UniProt P9WQA3); experiment: Fluorescence-based biochemical high throughput dose response assay for inhibitors of the fructose-bisphosphate aldolase (FBA) of M. tuberculosis.; format: functional
Sequence of Fructose-bisphosphate aldolase (P9WQA3 whole entry): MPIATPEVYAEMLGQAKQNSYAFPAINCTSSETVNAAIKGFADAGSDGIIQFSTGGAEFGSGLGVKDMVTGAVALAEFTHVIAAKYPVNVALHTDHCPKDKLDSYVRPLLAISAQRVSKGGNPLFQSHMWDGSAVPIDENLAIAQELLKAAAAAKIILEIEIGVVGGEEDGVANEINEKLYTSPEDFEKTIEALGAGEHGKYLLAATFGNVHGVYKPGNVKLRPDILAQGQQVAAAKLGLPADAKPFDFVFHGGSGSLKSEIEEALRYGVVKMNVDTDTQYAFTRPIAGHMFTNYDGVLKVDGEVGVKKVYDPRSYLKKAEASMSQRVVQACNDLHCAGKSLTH

[22] = biological target: T3, Polyadenylate-binding protein 1 (Homo sapiens, UniProt P11940); experiment: PABP1 MLLE–PAM2 interaction inhibitors, dose response, miRNA deadenylation inhibitor project, biochemical, fluorescence polarization, Cy5-PAM2 peptide, secondary (AID 602260); format: functional; conditions: read-out: IC50_Mean
T3 sequence (P11940 whole entry, the tested form may be a part): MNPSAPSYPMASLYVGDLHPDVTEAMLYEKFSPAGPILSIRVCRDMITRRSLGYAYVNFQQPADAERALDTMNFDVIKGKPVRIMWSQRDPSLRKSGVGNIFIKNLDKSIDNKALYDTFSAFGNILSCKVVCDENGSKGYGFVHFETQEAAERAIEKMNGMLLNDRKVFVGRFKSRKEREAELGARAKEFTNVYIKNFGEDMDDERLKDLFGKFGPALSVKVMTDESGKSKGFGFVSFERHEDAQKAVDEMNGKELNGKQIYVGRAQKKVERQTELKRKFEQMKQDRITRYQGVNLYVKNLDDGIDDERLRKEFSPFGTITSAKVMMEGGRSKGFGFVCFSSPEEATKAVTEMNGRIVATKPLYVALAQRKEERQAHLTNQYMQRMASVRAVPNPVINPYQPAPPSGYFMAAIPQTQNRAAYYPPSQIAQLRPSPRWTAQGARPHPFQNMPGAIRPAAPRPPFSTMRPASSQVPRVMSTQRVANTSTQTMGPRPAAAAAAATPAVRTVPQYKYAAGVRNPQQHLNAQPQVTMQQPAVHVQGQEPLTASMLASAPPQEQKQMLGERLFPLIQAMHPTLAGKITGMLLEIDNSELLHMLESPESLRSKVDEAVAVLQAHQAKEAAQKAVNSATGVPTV

[23] = off-target signal loss in HeLa-CEM21 co-culture – HeLa F-luc CTL cells, cherry-picked, counter-screen for HIV-1 Env fusion inhibitor project, dose response (AID 652040); format: functional, cell-based;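 note: potency for signal decrease marking cytotoxic or nonspecific inhibition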
[24] = biological target: Sphingosine 1-phosphate receptor 1 (Homo sapiens, UniProt P21453); format: functional;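 note: Tango beta-arrestin reporter U2OS cells stimulated with S1P near its EC80; inhibitor potency meaning antagonism of receptor activation by the natural agonist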
Sequence of Sphingosine 1-phosphate receptor 1 (P21453 whole entry): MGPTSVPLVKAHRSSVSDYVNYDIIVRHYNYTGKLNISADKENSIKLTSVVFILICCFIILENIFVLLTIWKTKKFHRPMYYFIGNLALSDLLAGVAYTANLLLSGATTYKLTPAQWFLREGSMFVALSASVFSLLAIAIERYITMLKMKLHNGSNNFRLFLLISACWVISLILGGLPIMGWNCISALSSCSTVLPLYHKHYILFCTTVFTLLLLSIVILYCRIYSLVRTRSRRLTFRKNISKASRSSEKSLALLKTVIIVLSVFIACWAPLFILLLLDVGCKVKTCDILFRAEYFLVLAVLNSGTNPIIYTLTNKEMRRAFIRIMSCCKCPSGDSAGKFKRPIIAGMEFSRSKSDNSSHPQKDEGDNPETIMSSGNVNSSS

[25] = biological target: T4, Sphingosine 1-phosphate receptor 4 (Homo sapiens, UniProt O95977); experiment: Fluorescence dose response cell-based high throughput screening assay for antagonists of the Sphingosine 1-Phosphate Receptor 4 (S1P4). [Related pubchem assays: 1524 (Confirmation in triplicates.), 1510 (Primary screen.)]; format: functional
T4 sequence (O95977 whole entry): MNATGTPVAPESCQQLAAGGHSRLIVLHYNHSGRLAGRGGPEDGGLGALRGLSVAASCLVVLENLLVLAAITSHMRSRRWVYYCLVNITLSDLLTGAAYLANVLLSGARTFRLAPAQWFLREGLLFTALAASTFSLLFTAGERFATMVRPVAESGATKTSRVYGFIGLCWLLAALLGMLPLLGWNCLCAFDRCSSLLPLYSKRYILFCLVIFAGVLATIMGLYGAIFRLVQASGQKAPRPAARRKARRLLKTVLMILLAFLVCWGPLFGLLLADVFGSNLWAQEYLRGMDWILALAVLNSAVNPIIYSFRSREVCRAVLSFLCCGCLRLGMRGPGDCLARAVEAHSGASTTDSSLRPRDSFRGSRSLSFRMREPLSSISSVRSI

[26] = biological target: T3, Polyadenylate-binding protein 1; experiment: PABP1 MLLE–PAM2 binding inhibitor potency, dose response, biochemical, fluorescence polarization, FITC-PAM2 peptide (AID 602259); format: functional; conditions: read-out: IC50_Mean
[27] = biological target: Galanin receptor type 3 (Homo sapiens, UniProt O60755); experiment: Fluorescence-based cell-based primary high throughput dose response assay to identify antagonists of the Galanin Receptor 3 (GalR3).; format: functional
Sequence of Galanin receptor type 3 (O60755 whole entry, the tested form may be a part): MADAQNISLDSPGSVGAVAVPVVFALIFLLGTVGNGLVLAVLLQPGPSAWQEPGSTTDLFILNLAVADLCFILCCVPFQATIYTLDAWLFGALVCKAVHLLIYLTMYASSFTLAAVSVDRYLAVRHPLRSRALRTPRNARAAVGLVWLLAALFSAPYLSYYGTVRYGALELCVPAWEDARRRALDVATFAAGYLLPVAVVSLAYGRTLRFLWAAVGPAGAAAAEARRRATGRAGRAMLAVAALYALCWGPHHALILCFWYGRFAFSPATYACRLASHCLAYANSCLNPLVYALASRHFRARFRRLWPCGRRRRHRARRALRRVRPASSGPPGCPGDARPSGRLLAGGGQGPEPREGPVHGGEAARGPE

[28] = inhibitors of clade B AD8 Env fusion, dose response, cell-based, cherry-pick (AID 652062); format: functional;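 note: luciferase signal from cell-cell fusion driven by HIV-1 clade B AD8 Env; potency is for inhibitors of fusion seen as a drop in luminescence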
[29] = cells; format: functional, cell-based; conditions: HEK-CNG
[30] = ZM109 Env clade C HIV-1 fusion inhibitors, dose response, HeLa effector, CEM target cells, luciferase, cherry-pick (AID 652058); format: functional, cell-based
[31] = CEM21 lymphoblast cell cytotoxicity, dose response, cytotoxicity control for viral fusion inhibitor project, CellTiter-Glo luminescence, cherry-picked (AID 652042); format: functional, cell-based;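 note: potency for signal decrease meaning cytotoxicity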
[32] = biological target: Dual specificity tyrosine-phosphorylation-regulated kinase 1A (Rattus norvegicus, UniProt Q63470); format: biochemical, Homo sapiens
[33] = biological target: Melanocortin receptor 4 (Homo sapiens, UniProt P32245); experiment: MC4R antagonist potency on cAMP, dose response, cell-based, TR-FRET, biased antagonists (AID 602298); format: functional;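 note: antagonist potency against agonist-stimulated cAMP production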
Sequence of Melanocortin receptor 4 (P32245 whole entry, the tested form may be a part): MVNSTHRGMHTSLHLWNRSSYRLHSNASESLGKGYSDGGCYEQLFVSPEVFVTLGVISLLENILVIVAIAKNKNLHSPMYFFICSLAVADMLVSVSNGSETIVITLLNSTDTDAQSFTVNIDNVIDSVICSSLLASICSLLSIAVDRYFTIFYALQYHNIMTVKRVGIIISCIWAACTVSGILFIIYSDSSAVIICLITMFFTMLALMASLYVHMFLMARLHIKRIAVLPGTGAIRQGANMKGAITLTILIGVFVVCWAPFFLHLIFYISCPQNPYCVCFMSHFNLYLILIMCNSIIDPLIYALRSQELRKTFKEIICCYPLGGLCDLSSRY

[34] = inhibitors of HIV Env-driven cell fusion, dose response, cherry-pick (AID 652057); format: functional, cell-based
[35] = nonselective inhibitors of cellular cAMP signaling, dose response, counter-screen for MC4R biased antagonist project, cell-based, TR-FRET cAMP detection (AID 602305); format: functional;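 note: U2OS cells stimulated with forskolin near its EC80 as the cAMP inducer; potency is for inhibition of forskolin-stimulated cAMP signaling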
[36] = T. cruzi growth inhibition in host cells, dose response, cell-based, plate reader, dry powder, set 2 (AID 652275); format: functional
[37] = intracellular Trypanosoma cruzi inhibitors in host cells – cell-based, plate reader, cherry-pick samples, set 3, dose response (AID 651818); format: functional;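 note: compounds incubated with infected cells for about four days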
[38] = T. cruzi intracellular amastigote growth inhibition, dose response, imaging, CA-I/72 strain, bovine embryo skeletal muscle, dry powder (AID 651885); format: functional, cell-based
[39] = biological target: 1-phosphatidylinositol 4,5-bisphosphate phosphodiesterase beta-3 (Homo sapiens, UniProt Q01970); experiment: Fluorescence-based biochemical high throughput dose response assay to identify inhibitors of phospholipase C isozymes (PLC-B3).
Sequence of 1-phosphatidylinositol 4,5-bisphosphate phosphodiesterase beta-3 (Q01970 whole entry): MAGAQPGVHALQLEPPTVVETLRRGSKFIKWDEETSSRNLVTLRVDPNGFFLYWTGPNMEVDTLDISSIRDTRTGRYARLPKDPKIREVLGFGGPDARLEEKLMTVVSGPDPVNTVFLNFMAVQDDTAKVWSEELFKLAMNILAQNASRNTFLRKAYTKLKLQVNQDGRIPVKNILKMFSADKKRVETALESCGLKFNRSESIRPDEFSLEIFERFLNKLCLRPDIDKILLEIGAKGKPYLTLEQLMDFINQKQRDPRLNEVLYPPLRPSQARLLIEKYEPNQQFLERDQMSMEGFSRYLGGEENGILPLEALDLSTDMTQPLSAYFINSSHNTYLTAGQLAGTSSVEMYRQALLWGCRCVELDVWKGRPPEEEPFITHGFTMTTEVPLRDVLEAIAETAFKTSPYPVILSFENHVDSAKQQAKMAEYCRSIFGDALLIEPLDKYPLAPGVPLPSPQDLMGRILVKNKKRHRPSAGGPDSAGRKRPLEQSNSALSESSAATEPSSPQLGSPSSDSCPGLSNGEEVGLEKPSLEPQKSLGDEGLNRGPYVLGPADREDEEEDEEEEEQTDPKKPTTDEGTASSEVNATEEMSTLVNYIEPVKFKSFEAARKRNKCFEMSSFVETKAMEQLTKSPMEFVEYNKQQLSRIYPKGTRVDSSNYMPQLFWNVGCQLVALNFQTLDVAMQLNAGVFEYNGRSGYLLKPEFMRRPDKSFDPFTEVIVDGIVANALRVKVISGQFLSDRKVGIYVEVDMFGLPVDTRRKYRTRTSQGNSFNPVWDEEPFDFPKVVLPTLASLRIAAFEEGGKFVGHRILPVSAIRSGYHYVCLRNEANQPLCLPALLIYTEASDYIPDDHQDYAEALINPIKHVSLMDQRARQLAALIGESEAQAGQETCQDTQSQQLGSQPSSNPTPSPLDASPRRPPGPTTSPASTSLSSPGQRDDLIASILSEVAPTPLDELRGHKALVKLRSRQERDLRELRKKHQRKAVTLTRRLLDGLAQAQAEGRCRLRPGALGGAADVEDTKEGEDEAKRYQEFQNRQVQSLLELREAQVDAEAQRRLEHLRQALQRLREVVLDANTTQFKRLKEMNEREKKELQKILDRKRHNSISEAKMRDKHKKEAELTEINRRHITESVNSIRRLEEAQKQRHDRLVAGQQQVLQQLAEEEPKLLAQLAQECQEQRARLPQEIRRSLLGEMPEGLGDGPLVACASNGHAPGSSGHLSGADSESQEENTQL

[40] = biological target: 1-phosphatidylinositol 4,5-bisphosphate phosphodiesterase gamma-1 (Homo sapiens, UniProt P19174); experiment: Counterscreen for inhibitors of phospholipase C isozymes (PLC-B3): Fluorescence-based biochemical high throughput dose response assay to identify inhibitors of phospholipase C isozymes (PLC-gamma1).
Sequence of 1-phosphatidylinositol 4,5-bisphosphate phosphodiesterase gamma-1 (P19174 whole entry): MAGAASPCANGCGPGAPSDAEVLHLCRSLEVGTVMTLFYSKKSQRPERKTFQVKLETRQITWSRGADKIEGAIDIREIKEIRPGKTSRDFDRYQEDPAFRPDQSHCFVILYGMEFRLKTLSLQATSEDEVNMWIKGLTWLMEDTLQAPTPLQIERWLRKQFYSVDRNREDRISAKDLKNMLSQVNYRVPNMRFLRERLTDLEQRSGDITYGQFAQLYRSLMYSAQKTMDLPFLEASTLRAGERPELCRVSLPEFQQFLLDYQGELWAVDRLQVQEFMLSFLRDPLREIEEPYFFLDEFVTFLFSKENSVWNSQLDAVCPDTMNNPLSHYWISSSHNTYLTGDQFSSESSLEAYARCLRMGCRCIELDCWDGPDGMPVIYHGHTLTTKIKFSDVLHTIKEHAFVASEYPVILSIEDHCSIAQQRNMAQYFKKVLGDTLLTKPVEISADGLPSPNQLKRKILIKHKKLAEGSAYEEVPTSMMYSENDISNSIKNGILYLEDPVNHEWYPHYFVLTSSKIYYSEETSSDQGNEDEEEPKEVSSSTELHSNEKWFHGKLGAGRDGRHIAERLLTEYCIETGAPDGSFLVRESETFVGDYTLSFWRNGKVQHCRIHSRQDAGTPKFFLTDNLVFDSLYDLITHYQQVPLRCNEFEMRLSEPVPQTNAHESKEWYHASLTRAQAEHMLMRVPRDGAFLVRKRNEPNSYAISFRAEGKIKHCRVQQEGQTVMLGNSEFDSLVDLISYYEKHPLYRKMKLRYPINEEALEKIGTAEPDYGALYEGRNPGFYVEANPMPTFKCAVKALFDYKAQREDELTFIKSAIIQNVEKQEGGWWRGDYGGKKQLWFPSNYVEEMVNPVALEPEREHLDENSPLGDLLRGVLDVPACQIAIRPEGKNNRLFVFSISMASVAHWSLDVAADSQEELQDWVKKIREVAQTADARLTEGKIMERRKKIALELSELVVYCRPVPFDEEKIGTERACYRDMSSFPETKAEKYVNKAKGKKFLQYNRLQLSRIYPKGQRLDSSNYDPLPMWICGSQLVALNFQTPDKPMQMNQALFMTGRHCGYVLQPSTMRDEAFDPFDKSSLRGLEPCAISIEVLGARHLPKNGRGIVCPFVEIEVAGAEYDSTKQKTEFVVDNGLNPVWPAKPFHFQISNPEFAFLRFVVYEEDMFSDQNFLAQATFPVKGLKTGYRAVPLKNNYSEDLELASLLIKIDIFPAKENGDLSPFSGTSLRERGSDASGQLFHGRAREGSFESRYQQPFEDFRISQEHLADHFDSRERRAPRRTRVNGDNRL

For Cc1cccc(NS(=O)(=O)c2ccc(C3CCCCC3)cc2)c1, the AC50 [1] was 5.13 µM (active), the EC50 [2] was 6.98 µM (active) and the EC50 [3] was 5.02 µM (active). The AC50 [4] was > 70 µM (inactive), the AC50 [5] was 4.66 µM (active) and the EC50 [6] was 6.43 µM (active). For the same molecule, the AC50 [7] was 5.27 µM (active).
With CCOC(=O)c1cnc(SCCc2ccccc2)nc1N the EC50 [8] was > 67.5 µM (inactive).
With Cc1ccc(-n2nc3c(SCCN4CCOCC4)nnc(C)c3c2C)cc1 the IC50 [9] was 12.8 µM (inactive) and the IC50 [10] was > 138 µM (inactive).
In the case of Cn1c(CCN2CCCC2)nc2cc(NS(=O)(=O)c3ccc(Cl)cc3)ccc21, the AC50 [11] is reported as 6.57 µM (active), the AC50 [12] is reported as 52.5 µM (active) and the AC50 [13] is reported as 20.2 µM (active). For the same molecule, the AC50 [14] was 18.9 µM (active), the AC50 [15] was 72.5 µM (active) and the AC50 [16] was 46.1 µM (active). The AC50 [17] was > 100 µM (inactive), the AC50 [18] was 16.8 µM (active) and the AC50 [19] was 26.9 µM (active). The AC50 [20] was 12.8 µM (active).
In the case of COc1ccc(CNCc2ccc(OC)c3ccccc23)cc1, the IC50 [21] is reported as > 10 µM (inactive).
In the case of NC(=S)c1cn([C@@H]2O[C@H](CO)[C@@H](O)[C@H]2O)c2ncnc(N)c12, the IC50 [22] is reported as > 66 µM (inactive), the AC50 [11] is reported as 0.294 µM (active) and the AC50 [23] is reported as < 0.26 µM (active). The IC50 [24] was 1.96 µM (active), the IC50 [25] was 0.42 µM (active) and the IC50 [26] was > 66 µM (inactive). The IC50 [27] was 1.01 µM (active), the AC50 [28] was < 0.26 µM (active) and the EC50 [29] was > 29.9 µM (inactive). The AC50 [30] was < 0.26 µM (active), the AC50 [31] was 0.344 µM (active) and the AC50 [32] was 0.158 µM (active). For the same molecule, the IC50 [33] was > 64.6 µM (inactive), the AC50 [34] was < 0.26 µM (active) and the IC50 [35] was > 64.6 µM (inactive).
For C[C@@H]1CN([C@@H](C)CO)C(=O)c2cccc(NC(=O)c3ccncc3)c2O[C@H]1CN(C)CC1CCCCC1, the AC50 [28] was 1.96 µM (active), the AC50 [30] was 0.953 µM (active) and the AC50 [36] was 0.182 µM (active). For the same molecule, the AC50 [34] was 0.4 µM (active), the AC50 [37] was 0.636 µM (active) and the IC50 [38] was 0.74 µM (active).
With CCc1cnc(N2[C@@H](C#N)[C@@H](c3ccc(C#CC(C)C)cc3)[C@@H]2CO)s1 the AC50 [11] was 15.4 µM (active), the AC50 [12] was 29.4 µM (active) and the AC50 [13] was > 70 µM (inactive). The AC50 [15] was 24.7 µM (active), the AC50 [17] was 39.6 µM (active) and the AC50 [18] was 23.6 µM (active). For the same molecule, the AC50 [20] was 35.3 µM (active).
In the case of CC[C@H]1C=C[C@@H](C(=O)NS(=O)(=O)c2ccc(C)cc2)N(C(C)=O)C1, the IC50 [39] is reported as > 122 µM (inactive) and the IC50 [40] is reported as > 122 µM (inactive).
